“And” between values parts separate entries of the source, which are not always exact repeats. Equal entries are not always repeated. Results filed as inconclusive are left out. Numbered stars: 1 amine (or outer) side, 2 acyl side, 3 side chain; on linkers, the order of the positions; unused ones are H or OH. Bridge positions count the residues as written; N and C are the ends. Square brackets hold non-standard residues; d marks the D form. Peptide text beside a SMILES is read from it. I, II: the chains in the order shown. * marks the point of attachment. ξ: configuration not given here. Quinaldoyl(3-OH,6-OMe) = COc1ccc2nc(C(=O)*)c(O)cc2c1; X1 = CCC(=O)OC1CC=NN([*:1])C1C(=O)[*:2]; X2 = CC(=O)OC1CC=NN([*:1])C1C(=O)[*:2]; ξNMeVal(3-OH) = CNC(C(=O)O)C(C)(C)O; Sar = CNCC(=O)O
Test system: BDF1 mice, M5076 sarcoma s.c., survival/tumor T/C
Assay: NCI In Vivo Anticancer Drug Screen. Data for tumor model Sarcoma M5076 (subcutaneous) in B6D2F1 (BDF1) mice
Method: The antitumor activity of compounds was measured in mice bearing transplantable tumors. Survival or tumor size were measured and the results are expressed as the measurement made in the treated group (T) divided by the measurement made in the vehicle treated control group (C). The tumor model used in this assay is Sarcoma M5076 (subcutaneous) in B6D2F1 (BDF1) mice

[1] = endpoint: median survival time, dose: 50.0 mg/kg/injection, schedule: Q01DX009 (ip), vehicle: saline with Tween-80, higher = longer survival
[2] = endpoint: median survival time, dose: 100.0 mg/kg/injection, schedule: Q01DX009 (ip), vehicle: saline with Tween-80, higher = longer survival
[3] = endpoint: median tumor weight (est.), dose: 50.0 mg/kg/injection, schedule: Q01DX009 (ip), vehicle: saline with Tween-80, higher = larger tumour
[4] = endpoint: median tumor weight (est.), dose: 100.0 mg/kg/injection, schedule: Q01DX009 (ip), vehicle: saline with Tween-80, higher = larger tumour
[5] = endpoint: median survival time, dose: 200.0 mg/kg/injection, schedule: Q01DX009 (ip), vehicle: saline with Tween-80, higher = longer survival
[6] = endpoint: median tumor weight (est.), dose: 200.0 mg/kg/injection, schedule: Q01DX009 (ip), vehicle: saline with Tween-80, higher = larger tumour

CC1(C)OCC(CO)(Nc2nc(N3CC3)nc(N3CC3)n2)CO1
T/C (endpoint: median survival time, dose: 0.78 mg/kg/injection, schedule: Q02DX011 (ip), vehicle: saline, higher = longer survival): 98 % of control
T/C (endpoint: median survival time, dose: 1.56 mg/kg/injection, schedule: Q02DX011 (ip), vehicle: saline, higher = longer survival): 110 % of control
T/C (endpoint: median survival time, dose: 3.12 mg/kg/injection, schedule: Q02DX011 (ip), vehicle: saline, higher = longer survival): 164 % of control

Cc1c(N)nc([C@H](CC(N)=O)NC[C@H](N)C(N)=O)nc1C(=O)N[C@H](C(=O)N[C@H](C)[C@@H](O)[C@H](C)C(=O)N[C@H](C(=O)NCCc1nc(-c2nc(C(=O)NCCC[S+](C)C)cs2)cs1)[C@@H](C)O)C(OC1OC(CO)C(O)C(O)C1OC1OC(CO)C(O)C(OC(N)=O)C1O)c1cnc[nH]1 (some centres not stated)
T/C (endpoint: median survival time, dose: 1.6 mg/kg/injection, schedule: Q04DX009 (ip), vehicle: saline, higher = longer survival): 108 % of control
T/C (endpoint: median survival time, dose: 3.2 mg/kg/injection, schedule: Q04DX009 (ip), vehicle: saline, higher = longer survival): 115 % of control

O=P1(N(CCCl)CCCl)NCCCO1 (configuration not stated)
T/C (endpoint: median survival time, dose: 6.25 mg/kg/injection, schedule: Q04DX006 (ip), vehicle: saline, higher = longer survival): 100 % of control
T/C (endpoint: median survival time, dose: 12.5 mg/kg/injection, schedule: Q02DX033 (ip), vehicle: saline, higher = longer survival): 121 % of control
T/C (endpoint: median survival time, dose: 12.5 mg/kg/injection, schedule: Q04DX006 (ip), vehicle: saline, higher = longer survival): 108 % of control
T/C (endpoint: median survival time, dose: 25.0 mg/kg/injection, schedule: Q02DX033 (ip), vehicle: saline, higher = longer survival): 214 % of control
T/C (endpoint: median survival time, dose: 25.0 mg/kg/injection, schedule: Q04DX006 (ip), vehicle: saline, higher = longer survival): 124 % of control
T/C (endpoint: median survival time, dose: 50.0 mg/kg/injection, schedule: Q04DX006 (ip), vehicle: saline, higher = longer survival): 121 % of control
T/C (endpoint: median survival time, dose: 64.8 mg/kg/injection, schedule: Q01DX001 (ip), vehicle: saline, higher = longer survival): 101 % of control
T/C (endpoint: median survival time, dose: 210.0 mg/kg/injection, schedule: Q01DX001 (ip), vehicle: saline, higher = longer survival): 155 % of control and 157 % of control

O=C1/C(=C/c2ccc3c(c2)OCO3)SC(=S)N1c1ccc(Cl)c(Cl)c1
T/C [1]: 102 % of control
T/C [2]: 90 % of control
T/C [3]: 154 % of control
T/C [4]: 116 % of control

COC12C(COC(N)=O)C3=C(C(=O)C(C)=C(N)C3=O)N1CC1C2N1C (configuration not stated)
T/C (endpoint: mean tumor weight, dose: 1.5 mg/kg/injection, schedule: Q02DX011 (ip), vehicle: saline, higher = larger tumour): 59 % of control
T/C (endpoint: mean tumor weight, dose: 3.0 mg/kg/injection, schedule: Q02DX011 (ip), vehicle: saline, higher = larger tumour): 51 % of control
T/C (endpoint: mean tumor weight, dose: 6.0 mg/kg/injection, schedule: Q02DX011 (ip), vehicle: saline, higher = larger tumour): 2 % of control
T/C (endpoint: median tumor weight (est.), dose: 1.5 mg/kg/injection, schedule: Q02DX011 (ip), vehicle: saline, higher = larger tumour): 65 % of control
T/C (endpoint: median tumor weight (est.), dose: 3.0 mg/kg/injection, schedule: Q02DX011 (ip), vehicle: saline, higher = larger tumour): 49 % of control and 53 % of control
T/C (endpoint: median tumor weight (est.), dose: 6.0 mg/kg/injection, schedule: Q02DX011 (ip), vehicle: saline, higher = larger tumour): 1 % of control

CCC(=O)OC1CC=NN2C(=O)C(NC(=O)c3nc4ccc(OC)cc4cc3O)COC(=O)C(C(C)(C)O)N(C)C(=O)CN(C)C(=O)CNC(=O)C3C(OC(C)=O)CC=NN3C(=O)C(NC(=O)c3nc4ccc(OC)cc4cc3O)COC(=O)C(C(C)(C)O)N(C)C(=O)CN(C)C(=O)CNC(=O)C12 (configuration not stated) (I: {Quinaldoyl(3-OH,6-OMe)}-S[X1]G[Sar][ξNMeVal(3-OH)] / II: {Quinaldoyl(3-OH,6-OMe)}-S[X2]G[Sar][ξNMeVal(3-OH)]; ester I:1-II:C, I:C-II:1; configuration not given here)
T/C (endpoint: median survival time, dose: 18.8 micrograms/kg/injection, schedule: Q01DX009 (ip), vehicle: Klucel (hydroxypropylcellulose) (HPC), higher = longer survival): 89 % of control
T/C (endpoint: median tumor weight (est.), dose: 18.8 micrograms/kg/injection, schedule: Q01DX009 (ip), vehicle: DMSO, higher = larger tumour): 86 % of control

COC1CC2C=C(C)/C=C/C=C/C(=O)NC(c3ccccc3)C/C=C/CCC(O)CC(=O)C2=C1O (configuration not stated)
T/C (endpoint: median survival time, dose: 1.0 mg/kg/injection, schedule: Q01DX009 (ip), vehicle: Klucel (hydroxypropylcellulose) (HPC), higher = longer survival): 100 % of control
T/C (endpoint: median survival time, dose: 2.0 mg/kg/injection, schedule: Q01DX009 (ip), vehicle: Klucel (hydroxypropylcellulose) (HPC), higher = longer survival): 100 % of control
T/C (endpoint: median survival time, dose: 4.0 mg/kg/injection, schedule: Q01DX009 (ip), vehicle: Klucel (hydroxypropylcellulose) (HPC), higher = longer survival): 100 % of control
T/C (endpoint: median tumor weight (est.), dose: 1.0 mg/kg/injection, schedule: Q01DX009 (ip), vehicle: Klucel (hydroxypropylcellulose) (HPC), higher = larger tumour): 77 % of control
T/C (endpoint: median tumor weight (est.), dose: 2.0 mg/kg/injection, schedule: Q01DX009 (ip), vehicle: Klucel (hydroxypropylcellulose) (HPC), higher = larger tumour): 109 % of control
T/C (endpoint: median tumor weight (est.), dose: 4.0 mg/kg/injection, schedule: Q01DX009 (ip), vehicle: Klucel (hydroxypropylcellulose) (HPC), higher = larger tumour): 82 % of control

O=c1[nH]c(=O)n(C2CC(O)C(CO)O2)cc1F (configuration not stated)
T/C (endpoint: mean tumor weight, dose: 20.0 mg/kg/injection, schedule: Q02DX011 (ip), vehicle: Klucel (hydroxypropylcellulose) (HPC), higher = larger tumour): 66 % of control
T/C (endpoint: mean tumor weight, dose: 40.0 mg/kg/injection, schedule: Q02DX011 (ip), vehicle: Klucel (hydroxypropylcellulose) (HPC), higher = larger tumour): 49 % of control
T/C (endpoint: mean tumor weight, dose: 80.0 mg/kg/injection, schedule: Q02DX011 (ip), vehicle: Klucel (hydroxypropylcellulose) (HPC), higher = larger tumour): 13 % of control
T/C (endpoint: median tumor weight (est.), dose: 20.0 mg/kg/injection, schedule: Q02DX011 (ip), vehicle: Klucel (hydroxypropylcellulose) (HPC), higher = larger tumour): 62 % of control
T/C (endpoint: median tumor weight (est.), dose: 40.0 mg/kg/injection, schedule: Q02DX011 (ip), vehicle: Klucel (hydroxypropylcellulose) (HPC), higher = larger tumour): 46 % of control and 70 % of control
T/C (endpoint: median tumor weight (est.), dose: 160.0 mg/kg/injection, schedule: Q02DX011 (ip), vehicle: Klucel (hydroxypropylcellulose) (HPC), higher = larger tumour): 23 % of control

Cc1cc(-c2ccc(NC(=O)Nc3cccc(F)c3)c(C)c2)ccc1NC(=O)Nc1cccc(F)c1
T/C [1]: 110 % of control
T/C [2]: 102 % of control
T/C [5]: 104 % of control
T/C [3]: 107 % of control
T/C [4]: 84 % of control
T/C [6]: 70 % of control

CCCCN1C(=O)/C(=C/c2ccccc2OC)SC1=S
T/C [1]: 103 % of control
T/C [2]: 107 % of control
T/C [5]: 93 % of control
T/C [3]: 98 % of control
T/C [4]: 97 % of control
T/C [6]: 107 % of control

C[CH2][Ge]1([CH2]C)[CH2]CC2(CCN(CCCN(C)C)C2)C[CH2]1
T/C (endpoint: mean tumor weight, dose: 12.5 mg/kg/injection, schedule: Q02DX011 (ip), vehicle: saline, higher = larger tumour): 110 % of control
T/C (endpoint: mean tumor weight, dose: 25.0 mg/kg/injection, schedule: Q02DX011 (ip), vehicle: saline, higher = larger tumour): 79 % of control and 91 % of control
T/C (endpoint: mean tumor weight, dose: 50.0 mg/kg/injection, schedule: Q02DX011 (ip), vehicle: saline, higher = larger tumour): 107 % of control and 82 % of control
T/C (endpoint: median tumor weight (est.), dose: 12.5 mg/kg/injection, schedule: Q02DX011 (ip), vehicle: saline, higher = larger tumour): 94 % of control
T/C (endpoint: median tumor weight (est.), dose: 25.0 mg/kg/injection, schedule: Q02DX011 (ip), vehicle: saline, higher = larger tumour): 74 % of control
T/C (endpoint: median tumor weight (est.), dose: 50.0 mg/kg/injection, schedule: Q02DX011 (ip), vehicle: saline, higher = larger tumour): 74 % of control

Cc1cc(C)nc(NS(=O)(=O)c2ccc(NC(=O)C(Cl)(Cl)Cl)cc2)n1
T/C [1]: 88 % of control
T/C [2]: 88 % of control
T/C [5]: 94 % of control
T/C [4]: 171 % of control
T/C [6]: 100 % of control

COc1ccc(/C=C2\SC(=O)N(C)C2=O)cc1OC
T/C [1]: 93 % of control
T/C [2]: 100 % of control
T/C [5]: 93 % of control
T/C [3]: 104 % of control
T/C [4]: 110 % of control
T/C [6]: 77 % of control

O=C(O)CC(NC(=O)CP(=O)(O)O)C(=O)O (configuration not stated)
T/C (endpoint: median survival time, dose: 38.9 mg/kg/injection, schedule: Q01DX004 (ip), vehicle: saline, higher = longer survival): 109 % of control
T/C (endpoint: median survival time, dose: 64.8 mg/kg/injection, schedule: Q01DX004 (ip), vehicle: saline, higher = longer survival): 114 % of control
T/C (endpoint: median survival time, dose: 75.0 mg/kg/injection, schedule: Q02DX010 (ip), vehicle: saline, higher = longer survival): 176 % of control
T/C (endpoint: median survival time, dose: 150.0 mg/kg/injection, schedule: Q02DX010 (ip), vehicle: saline, higher = longer survival): 169 % of control
T/C (endpoint: median survival time, dose: 180.0 mg/kg/injection, schedule: Q01DX004 (ip), vehicle: saline, higher = longer survival): 124 % of control
T/C (endpoint: median survival time, dose: 300.0 mg/kg/injection, schedule: Q02DX010 (ip), vehicle: saline, higher = longer survival): 181 % of control
